The text below walks through data of patent publication US10918742B2, “Iodine-based particles” (Nanoprobes, Inc., priority 2016, dated 2021).

Molecules are shown by their SMILES.

The conditions of data set [1]: mice, acute dose; cited from earlier work.
Data set [2] is described as follows: microCT comparison with commercially available agent (kidney, lung). The format is in vivo, mouse. On the procedure:
A mouse was injected with a standard iodine contrast agent at an effective dose of 2.5 g iodine/kg.
A mouse was injected with a standard iodine contrast agent at an effective dose of 1.75 g iodine/kg.

Turning to `CC(=O)N(CC(O)CO)c1c(I)c(C(=O)NCC(O)CO)c(I)c(C(=O)NCC(O)CO)c1I` (stereo not drawn) [Iohexol, 5-(N-2,3-Dihydroxypropylacetamido)-2,4,6-triiodo-N,N′-bis(2,3-dihydroxypropyl)isophthalamide], in data set [1], the “intravenous LD50” value is 24.2 g iodine/kg. The “microCT of lung region” value in data set [2] (30 minutes after injection, 1.75 g iodine/kg) is reported as “no clear visualization of any vasculature”. For the same compound, the “microCT of kidney region” value in data set [2] (two minutes after injection, Example 1 at 1.75 g iodine/kg, standard agent at 2.5 g iodine/kg) is “the iodine has rapidly entered the kidneys and is being quickly removed from the blood”.
